Laboratory results from PubChem BioAssay AID248 (DTP/NCI, 2004).
Several values for one entry are separate records, joined by “and”; a condition that tells them apart may be missing. Equal entries are not always repeated. Inconclusive results and toxic doses are left out. Cut-off read from the data, not from the text of the source: active = T/C of 150% or more; inactive = T/C below 125%.

Tested on: L1210 leukemia ip in BDF1 mice, survival T/C
Experiment: NCI In Vivo Anticancer Drug Screen. Data for tumor model L1210 Leukemia (intraperitoneal) in B6D2F1 (BDF1) mice
Conditions: endpoint: mean survival time, higher = longer survival
How it was run: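 Mice bearing the transplanted tumor received compound or vehicle. Survival of the treated group was divided by that of the vehicle-treated control group to give the ratio.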

[1] = dose: 100.0 mg/kg/injection, schedule: Q01DX009 (ip), vehicle: saline with Tween-80
[2] = dose: 100.0 mg/kg/injection, schedule: Q04DX003 (ip), vehicle: saline with Tween-80
[3] = dose: 200.0 mg/kg/injection, schedule: Q01DX009 (ip), vehicle: saline with Tween-80
[4] = dose: 200.0 mg/kg/injection, schedule: Q04DX003 (ip), vehicle: saline with Tween-80
[5] = dose: 400.0 mg/kg/injection, schedule: Q04DX003 (ip), vehicle: saline with Tween-80
[6] = dose: 100.0 mg/kg/injection, schedule: Q04DX002 (ip), vehicle: Klucel (hydroxypropylcellulose) (HPC)
[7] = dose: 200.0 mg/kg/injection, schedule: Q04DX002 (ip), vehicle: Klucel (hydroxypropylcellulose) (HPC)
[8] = dose: 400.0 mg/kg/injection, schedule: Q04DX002 (ip), vehicle: Klucel (hydroxypropylcellulose) (HPC)
[9] = dose: 100.0 mg/kg/injection, schedule: Q04DX003 (ip), vehicle: gum acacia
[10] = dose: 200.0 mg/kg/injection, schedule: Q04DX003 (ip), vehicle: gum acacia
[11] = dose: 400.0 mg/kg/injection, schedule: Q04DX003 (ip), vehicle: gum acacia
[12] = dose: 100.0 mg/kg/injection, schedule: Q04DX003 (ip), vehicle: Klucel (hydroxypropylcellulose) (HPC)
[13] = dose: 200.0 mg/kg/injection, schedule: Q04DX003 (ip), vehicle: Klucel (hydroxypropylcellulose) (HPC)
[14] = dose: 400.0 mg/kg/injection, schedule: Q04DX003 (ip), vehicle: Klucel (hydroxypropylcellulose) (HPC)
[15] = dose: 100.0 mg/kg/injection, schedule: Q01DX009 (ip), vehicle: Klucel (hydroxypropylcellulose) (HPC)
[16] = dose: 200.0 mg/kg/injection, schedule: Q01DX009 (ip), vehicle: Klucel (hydroxypropylcellulose) (HPC)
[17] = dose: 400.0 mg/kg/injection, schedule: Q01DX009 (ip), vehicle: Klucel (hydroxypropylcellulose) (HPC)
[18] = dose: 50.0 mg/kg/injection, schedule: Q01DX009 (ip), vehicle: saline with Tween-80
[19] = dose: 50.0 mg/kg/injection, schedule: Q01DX009 (ip), vehicle: Klucel (hydroxypropylcellulose) (HPC)
[20] = dose: 100.0 mg/kg/injection, schedule: Q01DX001 (ip), vehicle: saline
[21] = dose: 200.0 mg/kg/injection, schedule: Q01DX001 (ip), vehicle: saline
[22] = dose: 12.5 mg/kg/injection, schedule: Q01DX009 (ip), vehicle: saline
[23] = dose: 25.0 mg/kg/injection, schedule: Q01DX009 (ip), vehicle: saline

Measured: T/C

COc1ccc(Cl)cc1NC(=O)Oc1ccccn1
inactive: [1] 89 % of control | dose: 100.0 mg/kg/injection, schedule: Q04DX002 (ip), vehicle: saline with Tween-80 92 % of control and 97 % of control | [2] 95 % of control | dose: 200.0 mg/kg/injection, schedule: Q01DX001 (ip), vehicle: saline with Tween-80 89 % of control | [3] 90 % of control and 91 % of control | dose: 200.0 mg/kg/injection, schedule: Q04DX002 (ip), vehicle: saline with Tween-80 93 % of control and 102 % of control | [4] 101 % of control | dose: 400.0 mg/kg/injection, schedule: Q01DX001 (ip), vehicle: saline with Tween-80 92 % of control | dose: 400.0 mg/kg/injection, schedule: Q01DX009 (ip), vehicle: saline with Tween-80 96 % of control | dose: 400.0 mg/kg/injection, schedule: Q04DX002 (ip), vehicle: saline with Tween-80 95 % of control and 91 % of control | [5] 101 % of control

CN(Cc1cccc(Cl)c1)C(=O)Nc1ccccc1Cl
inactive: [6] 104 % of control | [7] 104 % of control | [8] 104 % of control

CCCCCCCCC(=O)N1C(C)CCCC1C (centres undefined)
inactive: dose: 100.0 mg/kg/injection, schedule: Q04DX002 (ip), vehicle: saline 111 % of control | dose: 200.0 mg/kg/injection, schedule: Q04DX002 (ip), vehicle: saline 114 % of control | dose: 400.0 mg/kg/injection, schedule: Q04DX002 (ip), vehicle: saline 100 % of control

C=COC(=O)N1c2ccc(C)cc2C=CC1C#N (centres undefined)
inactive: [9] 92 % of control | [10] 102 % of control | [11] 86 % of control

COC(=O)c1nc(Cl)nc(SC)c1Cl
inactive: [12] 96 % of control | [13] 110 % of control | [14] 96 % of control

COc1ccc2c(O)coc2c1
inactive: [15] 100 % of control | [12] 104 % of control | [16] 101 % of control | [13] 102 % of control | [17] 96 % of control | [14] 93 % of control

C[C@]12CC[C@@H]3c4ccc(OCC(=O)O)cc4CC[C@H]3[C@@H]1CCC2=O
inactive: dose: 75.0 mg/kg/injection, schedule: Q01DX009 (ip), vehicle: Klucel (hydroxypropylcellulose) (HPC) 97 % of control | dose: 150.0 mg/kg/injection, schedule: Q01DX009 (ip), vehicle: Klucel (hydroxypropylcellulose) (HPC) 90 % of control

CC(C)CSC(C)C
inactive: [18] 98 % of control | [1] 96 % of control | [2] 107 % of control | [3] 91 % of control | [4] 105 % of control | [5] 87 % of control

CNC(=O)ON=C1CCC(CC2CCCCC2)CC1 (centres undefined)
inactive: [19] 100 % of control | [15] 91 % of control | [12] 92 % of control | [16] 96 % of control | [13] 94 % of control

NC(=S)N/N=C\c1[nH]c(=O)nc2ccccc12
inactive: [15] 98 % of control | [12] 103 % of control | [16] 92 % of control | [13] 100 % of control | [17] 95 % of control | [14] 97 % of control

O=C1C=C(S(=O)(=O)c2ccccc2)C(=O)c2ccccc21
inactive: dose: 75.0 mg/kg/injection, schedule: Q01DX001 (ip), vehicle: other 93 % of control | dose: 150.0 mg/kg/injection, schedule: Q01DX001 (ip), vehicle: other 98 % of control

O=C1c2ccccc2C(c2ccccc2)C1c1ccccc1 (centres undefined)
inactive: dose: 50.0 mg/kg/injection, schedule: Q04DX002 (ip), vehicle: Klucel (hydroxypropylcellulose) (HPC) 108 % of control | [6] 94 % of control | [7] 94 % of control

CC1=NNC(=O)C1
inactive: dose: 50.0 mg/kg/injection, schedule: Q01DX009 (ip), vehicle: carboxymethylcellulose (CMC) 100 % of control | dose: 100.0 mg/kg/injection, schedule: Q01DX009 (ip), vehicle: carboxymethylcellulose (CMC) 114 % of control | [12] 89 % of control | [2] 112 % of control | dose: 200.0 mg/kg/injection, schedule: Q01DX009 (ip), vehicle: carboxymethylcellulose (CMC) 114 % of control | [13] 98 % of control | [4] 105 % of control | [14] 96 % of control | [5] 112 % of control

CCOc1ccc(Nc2cccc3ccccc23)cc1
inactive: [6] 94 % of control | [7] 88 % of control | [8] 98 % of control

ClC1=C(Cl)C2(Cl)C(c3ccccc3)=CC1(Cl)C2(Cl)Cl (centres undefined)
inactive: dose: 100.0 mg/kg/injection, schedule: Q01DX009 (ip), vehicle: gum acacia 93 % of control | [9] 114 % of control | dose: 200.0 mg/kg/injection, schedule: Q01DX009 (ip), vehicle: gum acacia 90 % of control | [10] 99 % of control | dose: 400.0 mg/kg/injection, schedule: Q01DX009 (ip), vehicle: gum acacia 100 % of control | [11] 92 % of control

CCOc1ccc(Nc2cccc(O)c2)cc1
inactive: [18] 95 % of control | [1] 103 % of control | [3] 95 % of control

CN1CCC(CN2c3ccccc3Sc3ccccc32)CC1
inactive: dose: 6.25 mg/kg/injection, schedule: Q01DX009 (ip), vehicle: saline with Tween-80 93 % of control | dose: 12.5 mg/kg/injection, schedule: Q01DX009 (ip), vehicle: saline with Tween-80 93 % of control | dose: 15.0 mg/kg/injection, schedule: Q01DX Z (ip), vehicle: methylcellulose (MC) 104 % of control | dose: 25.0 mg/kg/injection, schedule: Q01DX009 (ip), vehicle: saline with Tween-80 93 % of control | dose: 25.0 mg/kg/injection, schedule: Q04DX003 (ip), vehicle: saline 108 % of control | dose: 30.0 mg/kg/injection, schedule: Q01DX Z (ip), vehicle: methylcellulose (MC) 108 % of control | dose: 45.0 mg/kg/injection, schedule: Q01DX Z (ip), vehicle: methylcellulose (MC) 96 % of control | dose: 50.0 mg/kg/injection, schedule: Q04DX003 (ip), vehicle: saline 100 % of control and 109 % of control | [20] 103 % of control | dose: 100.0 mg/kg/injection, schedule: Q04DX003 (ip), vehicle: saline 97 % of control | [21] 102 % of control | dose: 200.0 mg/kg/injection, schedule: Q04DX003 (ip), vehicle: saline 106 % of control and 108 % of control | dose: 400.0 mg/kg/injection, schedule: Q04DX003 (ip), vehicle: saline 97 % of control

CC(CCN1CCOCC1)(CN=C(N)N)c1cccc2ccccc12 (centres undefined)
inactive: [22] 111 % of control | [23] 97 % of control | dose: 25.0 mg/kg/injection, schedule: Q04DX002 (ip), vehicle: saline 93 % of control | dose: 50.0 mg/kg/injection, schedule: Q01DX009 (ip), vehicle: saline 100 % of control

O=C(NCCc1ccccc1)Nc1cc([N+](=O)[O-])ccc1F
inactive: [12] 94 % of control | [13] 96 % of control | [14] 102 % of control

Cc1ccc(Oc2ccc3cc[n+](C)cc3c2)cc1
inactive: dose: 6.25 mg/kg/injection, schedule: Q04DX002 (ip), vehicle: DMSO 94 % of control | dose: 12.5 mg/kg/injection, schedule: Q04DX002 (ip), vehicle: DMSO 105 % of control | dose: 25.0 mg/kg/injection, schedule: Q04DX002 (ip), vehicle: DMSO 102 % of control

COC1OC(C)C(NC(C)=O)C(OCc2ccccc2)C1OCc1ccccc1 (centres undefined)
inactive: [12] 95 % of control | [13] 95 % of control | [14] 97 % of control

CS(=O)(=O)OCOS(C)(=O)=O
inactive: dose: 12.5 mg/kg/injection, schedule: Q01DX009 (ip), vehicle: Klucel (hydroxypropylcellulose) (HPC) 104 % of control | [22] 96 % of control | dose: 25.0 mg/kg/injection, schedule: Q01DX009 (ip), vehicle: Klucel (hydroxypropylcellulose) (HPC) 101 % of control | [23] 100 % of control | [19] 120 % of control | dose: 50.0 mg/kg/injection, schedule: Q04DX002 (ip), vehicle: saline 119 % of control

O=C1c2ccccc2C(=O)c2c1ccc(C1C(=O)c3ccccc3C1=O)c2-c1c(C2C(=O)c3ccccc3C2=O)ccc2c1C(=O)c1ccccc1C2=O
inactive: [20] 95 % of control | [21] 95 % of control | dose: 400.0 mg/kg/injection, schedule: Q01DX001 (ip), vehicle: saline 97 % of control
